This note sets out measurements from US11298363B2, “Triazolobenzazepines as vasopressin V1a receptor antagonists” (RICHTER GEDEON NYRT., priority 2017, dated 2022).

The structures appear in SMILES notation.

Experiment [1] has as its target T1, human vasopressin V1a receptor (Homo sapiens, UniProt P37288). The experiment can be described thus: Human vasopressin V1a receptor binding assay. The following applies: 1321N1 cell membranes, [3H]vasopressin; read-out: Ki (nM) on hV1a cell line. In outline:
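Ki values come from IC50 via Cheng-Prusoff (KD from prior Scatchard), averaged over at least two independent runs. Human V1a membranes were incubated with radioligand 60 minutes at 27° C., bound ligand collected by filtration; (Arg^8)-vasopressin at 1.2×10^−6 M defined non-specific binding.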

Experiment [2] concerns the target T1, human vasopressin V1a receptor. The experiment can be described thus: Functional assay on human vasopressin V1a receptor expressing cell line (intracellular Ca2+ fluorescence). Type of experiment: cell-based. Particulars: 1321N1 cells, (Arg8)-vasopressin at EC80; read-out: IC50 (nM) on hV1a cell line.
Experiment [3] has as its target mouse V1a receptor (Mus musculus, UniProt Q62463). The experiment can be described thus: Functional V1a in vivo test: inhibition of oxytocin-induced scratching behaviour. The following applies: mice, 10 mg/kg p.o. pretreatment. As for the experimental part: Functional V1a In Vivo Test
Male mice (NMRI, ToxiCoop) weighing 18-40 g were used. Animals were kept at least 5 days after delivery, during housing and measurements they were fed and drink ad libitum. The experiments were permitted by the Local Animal Protection Committee and carried out in accordance with the European Animal Protection Directives (EU Directive 2010/63/EU).
Animal behaviour was measured by an automated behavioral analysis system (LABORAS™). The sensors located below platforms detect the mechanical vibration generated by the movement of animal, and transform into an electrical signal (Quinn et al., J Neurosci Methods 2003, 130:83-92). After analyzing signals, the system analyzes the time spent with the following behavioral parameters: locomotion, immobility, climbing, grooming. The grooming algorithm by definition is able to measure the scratching behavioral response. During the experiment, mice were pretreated with the test substance or vehicle, and after the pretreatment period scratching-inducing compound (s.c. 0.3 mg/kg oxytocin) was administered, and then the animals were individually placed into measuring cages. […] To reduce the exploratory activity, the animals were measured after a 1-hour habituation to the cage. The behavioural parameters were compared to the parallel measured parameters of the control animals.
The behavioural inhibitory effect of the substances was calculated with average values of parallel measured vehicle treated groups and presented as the percentage of inhibition: 0% was expressed as average value of scratching behaviour of vehicle pretreated animals (and phys. saline s.c. pretreated with vehicle), while 100% was expressed as average value of scratching of vehicle pretreated animals that received oxytocin subcutaneously. For statistical analysis one-way analysis of variance (ANOVA) with Tukey post hoc test were used.

Sequence of mouse V1a receptor (Q62463 whole entry): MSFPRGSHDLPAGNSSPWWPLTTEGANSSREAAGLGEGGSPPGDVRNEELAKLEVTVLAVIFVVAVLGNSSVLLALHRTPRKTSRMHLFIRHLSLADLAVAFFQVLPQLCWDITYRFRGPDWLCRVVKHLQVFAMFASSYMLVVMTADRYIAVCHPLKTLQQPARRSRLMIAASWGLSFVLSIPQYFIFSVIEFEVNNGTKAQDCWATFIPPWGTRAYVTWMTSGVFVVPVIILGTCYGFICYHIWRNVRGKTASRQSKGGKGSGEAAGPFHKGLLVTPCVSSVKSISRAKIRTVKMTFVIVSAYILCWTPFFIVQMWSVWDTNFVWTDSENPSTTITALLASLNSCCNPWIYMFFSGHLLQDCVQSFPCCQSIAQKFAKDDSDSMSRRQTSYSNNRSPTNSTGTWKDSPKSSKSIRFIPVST
T1 sequence (P37288 whole entry): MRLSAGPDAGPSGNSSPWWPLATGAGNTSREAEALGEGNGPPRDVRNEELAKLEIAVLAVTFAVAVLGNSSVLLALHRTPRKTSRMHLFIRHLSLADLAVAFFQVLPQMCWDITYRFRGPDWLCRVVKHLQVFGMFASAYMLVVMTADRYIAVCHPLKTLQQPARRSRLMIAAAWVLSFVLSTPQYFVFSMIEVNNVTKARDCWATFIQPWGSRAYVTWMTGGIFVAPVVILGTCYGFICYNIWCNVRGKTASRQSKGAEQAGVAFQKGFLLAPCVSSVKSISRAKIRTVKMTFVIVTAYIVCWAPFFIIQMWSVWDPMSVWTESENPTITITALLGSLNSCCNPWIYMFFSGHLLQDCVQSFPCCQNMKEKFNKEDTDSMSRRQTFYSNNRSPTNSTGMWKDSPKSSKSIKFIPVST

Take `NCC(=O)N[C@@H]1Cc2cc(Cl)ccc2-n2c(nnc2[C@H]2CC[C@H](Oc3ccccn3)CC2)C1` [Example 12, N-{(5R)-8-chloro-1-[trans-4-(pyridin-2-yloxy)cyclohexyl]-5,6-dihydro-4H-[1,2,4]triazolo[4,3-a][1]benzazepin-5-yl}glycinamide]: the Ki in experiment [1] is 0.8 nM. For the same molecule, the IC50 in experiment [2] was 9 nM. For the same molecule, in experiment [3], the “inhibition (%) of oxytocin-induced scratching behaviour response” value (shortened to “inhibition (%)”) turned out to be 34%.
Consider `CCNC1Cc2cc(Cl)ccc2-n2c(nnc2[C@H]2CC[C@H](Oc3ccccn3)CC2)C1` (stereo partly drawn) [Example 23, 8-chloro-N-ethyl-1-[trans-4-(pyridin-2-yloxy)cyclohexyl]-5,6-dihydro-4H-[1,2,4]triazolo[4,3-a][1]benzazepine-5-amine], for which the Ki in experiment [1] was found to be 1 nM. The IC50 in experiment [2] was 6.4 nM. In experiment [3], the “inhibition (%)” value is recorded as 75%.
Consider `Clc1ccc2c(c1)CC(NC1CCOCC1)Cc1nnc([C@H]3CC[C@H](Oc4ccccn4)CC3)n1-2` (stereo partly drawn) [Example 29, 8-chloro-1-[trans-4-(pyridin-2-yloxy)cyclohexyl]-N-(tetrahydro-2H-pyran-4-yl)-5,6-dihydro-4H-[1,2,4]triazolo[4,3-a][1]benzazepine-5-amine], for which the Ki in experiment [1] amounted to 0.6 nM. In addition, the IC50 in experiment [2] worked out at 5.4 nM. Besides, the “inhibition (%)” value in experiment [3] came to 89%.
For `O[C@H]1Cc2cc(Cl)ccc2-n2c(nnc2[C@H]2CC[C@H](Oc3ccccn3)CC2)C1` [Example 56, (5S)-8-chloro-1-[trans-4-(pyridin-2-yloxy)cyclohexyl]-5,6-dihydro-4H-[1,2,4]triazolo[4,3-a][1]benzazepin-5-ol], in that order: 0.3 nM, 1.2 nM and 92%.
Take `CN(C)CCOC1Cc2cc(Cl)ccc2-n2c(nnc2[C@H]2CC[C@H](Oc3ccccn3)CC2)C1` (stereo partly drawn) [Example 60, 2-({8-chloro-1-[trans-4-(pyridin-2-yloxy)cyclohexyl]-5,6-dihydro-4H-[1,2,4]triazolo[4,3-a][1]benzazepin-5-yl}oxy)-N,N-dimethylethanamine]: the Ki in experiment [1] was 2 nM. Moreover, in experiment [2], the IC50 amounted to 45 nM. Further, in experiment [3], the “inhibition (%)” value is reported as 40%.
The matching figures for `FC(F)(F)[C@H]1CC[C@H](c2nnc3n2-c2ccc(Cl)cc2CC2(C3)OCCO2)CC1` [Example 61, 8′-chloro-1′-[trans-4-(trifluoromethyl)cyclohexyl]-4′H,6′H-spiro[1,3-dioxolane-2,5′-[1,2,4]triazolo[4,3-a][1]benzazepine]]: 0.4 nM, 2.5 nM and 41%.
For the molecule `N#Cc1ccc2c(c1)CC1(Cc3nnc([C@H]4CC[C@H](Oc5ccccn5)CC4)n3-2)OCCO1` [Example 66, 1′-[trans-4-(pyridin-2-yloxy)cyclohexyl]-4′H,6′H-spiro[1,3-dioxolane-2,5′-[1,2,4]triazolo[4,3-a][1]benzazepine]-8′-carbonitrile], in experiment [1], the Ki came to 0.8 nM. Besides, the IC50 in experiment [2] came to 2.2 nM. In addition, the “inhibition (%)” value in experiment [3] was 76%.
The matching figures for `Clc1ccc2c(c1)CC1(Cc3nnc([C@H]4CC[C@H](Oc5ccccn5)CC4)n3-2)OCCCO1` [Example 88, 8′-chloro-1′-[trans-4-(pyridin-2-yloxy)cyclohexyl]-4′H,6′H-spiro[1,3-dioxane-2,5′-[1,2,4]triazolo[4,3-a][1]benzazepine]]: 0.3 nM, 0.9 nM and 79%.
As to `FC(F)(F)[C@H]1CC[C@H](c2nnc3n2-c2ccc(Cl)cc2CC2(C3)OCCCO2)CC1` [Example 89, 8′-chloro-1′-[trans-4-(trifluoromethyl)cyclohexyl]-4′H,6′H-spiro[[1,3]dioxane-2,5′-[1,2,4]triazolo[4,3-a][1]benzazepine]], the Ki in experiment [1] was determined as 0.4 nM. The IC50 in experiment [2] was found to be 1.9 nM. For the same molecule, the “inhibition (%)” value in experiment [3] was 50%.
For `Fc1ccc2c(c1)CC1(Cc3nnc([C@H]4CC[C@H](Oc5ccccn5)CC4)n3-2)OCCO1` [Example 96, 8′-fluoro-1′-[trans-4-(pyridin-2-yloxy)cyclohexyl]-4′H,6′H-spiro[1,3-dioxolane-2,5′-[1,2,4]triazolo[4,3-a][1]benzazepine]], the Ki in experiment [1] stood at 0.2 nM. For the same molecule, in experiment [2], the IC50 was found to be 0.8 nM. Further, in experiment [3], the “inhibition (%)” value is on record as 49%.
As for `CCN[C@@H]1Cc2cc(Cl)ccc2-n2c(nnc2[C@H]2CC[C@H](Oc3ccccn3)CC2)C1` [Example 99, (5R)-8-chloro-N-ethyl-1-[trans-4-(pyridin-2-yloxy)cyclohexyl]-5,6-dihydro-4H-[1,2,4]triazolo[4,3-a][1]benzazepin-5-amine], the Ki in experiment [1] is 0.3 nM. Also, the IC50 in experiment [2] came to 2.5 nM. Also, the “inhibition (%)” value in experiment [3] was 60%.
As to `CN[C@@H]1Cc2cc(Cl)ccc2-n2c(nnc2[C@H]2CC[C@H](Oc3ccccn3)CC2)C1` [Example 100, (5R)-8-chloro-N-methyl-1-[trans-4-(pyridin-2-yloxy)cyclohexyl]-5,6-dihydro-4H-[1,2,4]triazolo[4,3-a][1]benzazepin-5-amine], the Ki in experiment [1] came out at 0.2 nM. In experiment [2], the IC50 worked out at 1.5 nM. In experiment [3], the “inhibition (%)” value came out at 96%.
`CN(C)[C@@H]1Cc2cc(Cl)ccc2-n2c(nnc2[C@H]2CC[C@H](Oc3ccccn3)CC2)C1` [Example 101, (5R)-8-chloro-N,N-dimethyl-1-[trans-4-(pyridin-2-yloxy)cyclohexyl]-5,6-dihydro-4H-[1,2,4]triazolo[4,3-a][1]benzazepin-5-amine]: the Ki in experiment [1] is 0.2 nM. Also, the half-maximal inhibitory concentration (IC50) in experiment [2] was 1.3 nM. Moreover, the “inhibition (%)” value in experiment [3] stood at 105%.
`O=C(N[C@@H]1Cc2cc(Cl)ccc2-n2c(nnc2[C@H]2CC[C@H](Oc3ccccn3)CC2)C1)C1CC1` [Example 126, N-{(5R)-8-chloro-1-[trans-4-(pyridin-2-yloxy)cyclohexyl]-5,6-dihydro-4H-[1,2,4]triazolo[4,3-a][1]benzazepin-5-yl}cyclopropanecarboxamide]: the Ki in experiment [1] was 0.6 nM. Also, the IC50 in experiment [2] was found to be 1.8 nM. For the same molecule, the “inhibition (%)” value in experiment [3] is given as 43%.
`Clc1ccc2c(c1)CC1(Cc3nnc(N4CCC(Oc5ccccn5)CC4)n3-2)OCCO1` [Example 157, 8′-chloro-1′-[4-(pyridin-2-yloxy)piperidin-1-yl]-4′H,6′H-spiro[1,3-dioxolane-2,5′-[1,2,4]triazolo[4,3-a][1]benzazepine]]: the Ki in experiment [1] came out at 0.1 nM. Also, the IC50 in experiment [2] worked out at 0.5 nM. Further, the “inhibition (%)” value in experiment [3] is given as 108%.
The matching figures for `CO[C@]1(C)CC[C@@H](c2nnc3n2-c2ccc(Cl)cc2CC2(C3)OCCO2)CC1` [Example 198, 8′-chloro-1′-(trans-4-methoxy-4-methylcyclohexyl)-4′H,6′H-spiro[1,3-dioxolane-2,5′-[1,2,4]triazolo[4,3-a][1]benzazepine]]: 0.2 nM, 0.9 nM and 41%.
`CO[C@]1(C)CC[C@@H](c2nnc3n2-c2ccc(Cl)cc2CC2(C3)OCCCO2)CC1` [Example 204, 8′-chloro-1′-(trans-4-methoxy-4-methylcyclohexyl)-4′H,6′H-spiro[1,3-dioxane-2,5′-[1,2,4]triazolo[4,3-a][1]benzazepine]]: in experiment [1], the Ki is 0.2 nM. The IC50 in experiment [2] was found to be 2.7 nM. Moreover, in experiment [3], the “inhibition (%)” value is recorded as 65%.
In the case of `CO[C@]1(C)CC[C@H](c2nnc3n2-c2ccc(Cl)cc2CC2(C3)OCCCO2)CC1` [Example 205, 8′-chloro-1′-(cis-4-methoxy-4-methylcyclohexyl)-4′,6′H-spiro[1,3-dioxane-2,5′-[1,2,4]triazolo[4,3-a][1]benzazepine]], in experiment [1], the Ki is 0.2 nM. In experiment [2], the IC50 amounted to 2.7 nM. Besides, the “inhibition (%)” value in experiment [3] is 66%.
